Activity calls are given as the source filed them. The rule behind the calls is not given here.
How the values were obtained:
[1] = Cytotoxicity against C57BL/6 mouse BV-2 cells assessed as survival rate at 20 uM incubated for 24 hrs by MTT assay relative to control; assay type: toxicity, cell-based; conditions: read-out: INH
[2] = test system: BV-2; test: Anti-neuroinflammatory activity against LPS-stimulated C57BL/6 mouse BV-2 cells assessed as inhibition of NO release at 20 uM preincubated with compound for 4 hrs followed by LPS addition and measured after 24 hrs by Griess reagent based assay relative to control; assay type: functional; conditions: C57BL/6, BV-2, time 28 hrs
[3] = Cytotoxicity against C57BL/6 mouse BV-2 cells assessed as survival rate at 10 uM incubated for 24 hrs by MTT assay relative to control; assay type: toxicity, cell-based; conditions: read-out: Survival
[4] = test system: BV-2; test: Anti-neuroinflammatory activity against LPS-stimulated C57BL/6 mouse BV-2 cells assessed as inhibition of NO release at 10 uM preincubated with compound for 4 hrs followed by LPS addition and measured after 24 hrs by Griess reagent based assay relative to control; assay type: functional; conditions: C57BL/6, BV-2, time 28 hrs
[5] = Cytotoxicity against C57BL/6 mouse BV-2 cells assessed as survival rate at 30 uM incubated for 24 hrs by MTT assay relative to control; assay type: toxicity, cell-based; conditions: read-out: Survival
[6] = test system: BV-2; test: Anti-neuroinflammatory activity against LPS-stimulated C57BL/6 mouse BV-2 cells assessed as inhibition of NO release at 30 uM preincubated with compound for 4 hrs followed by LPS addition and measured after 24 hrs by Griess reagent based assay relative to control; assay type: functional; conditions: C57BL/6, BV-2, time 28 hrs
[7] = test system: BV-2; test: Anti-neuroinflammatory activity against LPS-stimulated C57BL/6 mouse BV-2 cells assessed as inhibition of NO release preincubated with compound for 4 hrs followed by LPS addition and measured after 24 hrs by Griess reagent based assay; assay type: functional, cell-based; conditions: C57BL/6, BV-2
[8] = test system: BV-2; test: Cytotoxicity against C57BL/6 mouse BV-2 cells assessed as effect on cell viability at 30 to 60 uM incubated for 24 hrs by MTT assay; assay type: toxicity, cell-based; conditions: bv-2, 24 h, dose 30-60 µM
[9] = test system: BV-2; test: Anti-neuroinflammatory activity against LPS-stimulated C57BL/6 mouse BV-2 cells assessed as inhibition of NO release at 30 to 60 uM preincubated with compound for 4 hrs followed by LPS addition and measured after 24 hrs by Griess reagent based assay; assay type: functional, cell-based; conditions: dose 30-60 µM, time 28.0 hrs
[10] = test system: BV-2; test: Anti-neuroinflammatory activity against LPS-stimulated C57BL/6 mouse BV-2 cells assessed as decrease in TNF-alpha expression level preincubated with compound for 4 hrs followed by LPS addition and measured after 24 hrs by ELISA; assay type: functional, cell-based; conditions: dose 30-60 µM, time 28.0 hrs
[11] = test system: BV-2; test: Anti-neuroinflammatory activity against LPS-stimulated C57BL/6 mouse BV-2 cells assessed as decrease in IL-6 expression level preincubated with compound for 4 hrs followed by LPS addition and measured after 24 hrs by ELISA; assay type: functional, cell-based; conditions: dose 30-60 µM, time 28.0 hrs
[12] = test system: BV-2; test: Anti-neuroinflammatory activity against LPS-stimulated C57BL/6 mouse BV-2 cells assessed as decrease in IL-1beta expression level preincubated with compound for 4 hrs followed by LPS addition and measured after 24 hrs by ELISA; assay type: functional, cell-based; conditions: dose 30-60 µM, time 28.0 hrs
[13] = test system: BV-2; test: Anti-neuroinflammatory activity against LPS-stimulated C57BL/6 mouse BV-2 cells assessed as decrease in TNF-alpha mRNA expression level at 30 to 60 uM preincubated with compound for 4 hrs followed by LPS addition and measured after 24 hrs by RT-PCR analysis; assay type: functional, cell-based; conditions: dose 30-60 µM, time 28.0 hrs
[14] = test system: BV-2; test: Anti-neuroinflammatory activity against LPS-stimulated C57BL/6 mouse BV-2 cells assessed as decrease in IL-6 mRNA expression level at 30 to 60 uM preincubated with compound for 4 hrs followed by LPS addition and measured after 24 hrs by RT-PCR analysis; assay type: functional, cell-based; conditions: dose 30-60 µM, time 28.0 hrs
[15] = test system: BV-2; test: Anti-neuroinflammatory activity against LPS-stimulated C57BL/6 mouse BV-2 cells assessed as decrease in IL-1beta mRNA expression level at 30 to 60 uM preincubated with compound for 4 hrs followed by LPS addition and measured after 24 hrs by RT-PCR analysis; assay type: functional, cell-based; conditions: dose 30-60 µM, time 28.0 hrs
[16] = test system: BV-2; test: Anti-neuroinflammatory activity against LPS-stimulated C57BL/6 mouse BV-2 cells assessed as downregulation of COX-2 mRNA expression level at 30 to 60 uM preincubated with compound for 4 hrs followed by LPS addition and measured after 24 hrs by RT-PCR analysis; assay type: functional, cell-based; conditions: dose 30-60 µM, time 28.0 hrs
[17] = test system: BV-2; test: Anti-neuroinflammatory activity against LPS-stimulated C57BL/6 mouse BV-2 cells assessed as downregulation of iNOS mRNA expression level at 30 to 60 uM preincubated with compound for 4 hrs followed by LPS addition and measured after 24 hrs by RT-PCR analysis; assay type: functional, cell-based; conditions: dose 30-60 µM, time 28.0 hrs
[18] = test system: BV-2; test: Anti-neuroinflammatory activity against LPS-stimulated C57BL/6 mouse BV-2 cells assessed as downregulation of COX-2 protein expression level by Western blot analysis; assay type: functional, cell-based; conditions: dose 30-60 µM
[19] = test system: BV-2; test: Anti-neuroinflammatory activity against LPS-stimulated C57BL/6 mouse BV-2 cells assessed as downregulation of iNOS protein expression level by Western blot analysis; assay type: functional, cell-based; conditions: dose 30-60 µM
[20] = test system: BV-2; test: Downregulation of TLR4 protein expression in C57BL/6 mouse BV-2 cells at 30 to 60 uM preincubated with compound for 4 hrs followed by LPS stimulation by Western blot analysis; assay type: functional, cell-based; conditions: dose 30-60 µM
[21] = test system: BV-2; test: Downregulation of MyD88 protein expression in C57BL/6 mouse BV-2 cells at 30 to 60 uM preincubated with compound for 4 hrs followed by LPS stimulation by Western blot analysis; assay type: functional, cell-based; conditions: dose 30-60 µM
[22] = test system: BV-2; test: Inhibition of NFkappaB p65 nuclear translocation in LPS-stimulated C57BL/6 mouse BV-2 cells at 30 to 60 uM preincubated with compound for 4 hrs followed by LPS stimulation by Western blot analysis; assay type: cell-based; conditions: dose 30-60 µM
[23] = test system: BV-2; test: Inhibition of IkappaB phosphorylation in LPS-stimulated C57BL/6 mouse BV-2 cells at 30 to 60 uM preincubated with compound for 4 hrs followed by LPS stimulation by Western blot analysis; assay type: cell-based; conditions: dose 30-60 µM
[24] = Acute toxicity in Kunming mouse assessed as animal death at 325 to 928 mg/kg, po measured after 14 days; assay type: organism-based; conditions: in vivo, 336 h, dose 325-928 mg/kg, time 14 day
[25] = Acute toxicity in Kunming mouse assessed as animal death at 250 mg/kg, po measured after 14 days; assay type: organism-based; conditions: in vivo, 336 h, time 14 day
[26] = Acute toxicity in po dosed Kunming mouse assessed as lethal dose measured after 14 days; assay type: organism-based; conditions: in vivo, time 14 day
[27] = Acute toxicity in Kunming mouse assessed as histological abnormalities in heart at 250 mg/kg, po measured after 14 days by H and E staining based analysis; assay type: organism-based; conditions: in vivo, 336 h, time 14 day
[28] = Acute toxicity in Kunming mouse assessed as histological abnormalities in liver at 250 mg/kg, po measured after 14 days by H and E staining based analysis; assay type: organism-based; conditions: in vivo, 336 h, time 14 day
[29] = Acute toxicity in Kunming mouse assessed as histological abnormalities in spleen at 250 mg/kg, po measured after 14 days by H and E staining based analysis; assay type: organism-based; conditions: in vivo, 336 h, time 14 day
[30] = Acute toxicity in Kunming mouse assessed as histological abnormalities in lung at 250 mg/kg, po measured after 14 days by H and E staining based analysis; assay type: organism-based; conditions: in vivo, 336 h, time 14 day
[31] = Acute toxicity in Kunming mouse assessed as histological abnormalities in kidney at 250 mg/kg, po measured after 14 days by H and E staining based analysis; assay type: organism-based; conditions: in vivo, 336 h, time 14 day

## CCN1C[C@]2(COC)CC[C@H](OC)[C@]34C1[C@@H](C[C@H]23)[C@@]1(O)C[C@H](OC)[C@H]2C[C@@H]4[C@]1(O)[C@H]2OC(=O)c1ccccc1NS(=O)(=O)c1ccc(Br)s1
[1]
  viability at 24 h, 20 µM: 110%
[2]
  inhibition at 20 µM: 32.8%

## CCN1C[C@]2(OC(=O)c3ccccc3NC(=O)S(=O)(=O)c3c(C)c(C)c4c(c3C)CC(C)(C)O4)CC[C@H](OC)[C@]34C1[C@@H](C[C@H]23)[C@@]1(O)C[C@H](OC)[C@H]2C[C@@H]4[C@]1(O)[C@H]2OC
[3]
  viability at 24 h, 10 µM: 95.8%
[4]
  inhibition at 10 µM: 17.5%

## CCN1C[C@]2(COC(=O)c3ccccc3NC(=O)c3ccc(Cl)s3)CC[C@H](OC)[C@]34C1[C@@H](C[C@H]23)[C@@]1(O)C[C@H](OC)[C@H]2C[C@@H]4[C@]1(O)[C@H]2OC
[3]
  viability at 24 h, 10 µM: 105%
[4]
  inhibition at 10 µM: 13.5%

## CCN1C[C@]2(OC(=O)c3ccccc3NC(=O)S(=O)(=O)c3c(Cl)sc4ccccc34)CC[C@H](OC)[C@]34C1[C@@H](C[C@H]23)[C@@]1(O)C[C@H](OC)[C@H]2C[C@@H]4[C@]1(O)[C@H]2OC
[3]
  viability at 24 h, 10 µM: 98.5%
[4]
  inhibition at 10 µM: 26.4%

## CCN1C[C@]2(COC)CC[C@H](OC)[C@]34C1[C@@H](C[C@H]23)[C@@]1(O)C[C@H](OC)[C@H]2C[C@@H]4[C@]1(O)[C@H]2OC(=O)c1ccccc1NS(=O)(=O)c1cccc(F)c1
[1]
  viability at 24 h, 20 µM: 100%
[2]
  inhibition at 20 µM: 18.5%

## CCN1C[C@]2(COC)CC[C@H](OC)[C@]34C1[C@@H](C[C@H]23)[C@@]1(O)C[C@H](OC)[C@H]2C[C@@H]4[C@]1(O)[C@H]2OC(=O)c1ccccc1NC(=O)c1ccc(Cl)s1
[3]
  viability at 24 h, 10 µM: 97.8%
[4]
  inhibition at 10 µM: 22.2%

## CCN1C[C@]2(OC(=O)c3ccccc3NC(=O)S(=O)(=O)c3cccc(F)c3)CC[C@H](OC)[C@]34C1[C@@H](C[C@H]23)[C@@]1(O)C[C@H](OC)[C@H]2C[C@@H]4[C@]1(O)[C@H]2OC
[5]
  viability at 24 h, 30 µM: 107%
[6]
  inhibition at 30 µM: 85.8%
[7]
  IC50: 9.98 µM
[8]
  Activity: Non-toxic
[9]
  Activity: Active
[10]
  Activity: Dose-dependent-effect
[11]
  Activity: Dose-dependent-effect
[12]
  Activity: Dose-dependent-effect
[13]
  Activity: Active
[14]
  Activity: Active
[15]
  Activity: Active
[16]
  Activity: Active
[17]
  Activity: Active
[18]
  Activity: Dose-dependent-effect
[19]
  Activity: Dose-dependent-effect
[20]
  Activity: Active
[21]
  Activity: Active
[22]
  inhibition: Active
[23]
  inhibition: Active
[24]
  Activity: Toxic
[25]
  Activity: Non-toxic
[26]
  LD50 at 336 h: 508 mg/kg
[27]
  Activity: Non-toxic
[28]
  Activity: Non-toxic
[29]
  Activity: Non-toxic
[30]
  Activity: Non-toxic
[31]
  Activity: Non-toxic

## CCc1ccc(C(=O)Nc2ccccc2C(=O)O[C@H]2[C@@H]3C[C@H]4[C@@]56C7[C@@H](C[C@@H]5[C@@](COC)(CC[C@@H]6OC)CN7CC)[C@@](O)(C[C@@H]3OC)[C@@]24O)cc1
[3]
  viability at 24 h, 10 µM: 1.2%

## CCc1ccc(C(=O)Nc2ccccc2C(=O)OC[C@@]23CC[C@H](OC)[C@]45C([C@@H](C[C@H]24)[C@@]2(O)C[C@H](OC)[C@H]4C[C@@H]5[C@]2(O)[C@H]4OC)N(CC)C3)cc1
[1]
  viability at 24 h, 20 µM: 102%
[2]
  inhibition at 20 µM: 21.7%

## CCc1ccc(C(=O)Nc2ccccc2C(=O)O[C@@]23CC[C@H](OC)[C@]45C([C@@H](C[C@H]24)[C@@]2(O)C[C@H](OC)[C@H]4C[C@@H]5[C@]2(O)[C@H]4OC)N(CC)C3)cc1
[5]
  viability at 24 h, 30 µM: 107%
[6]
  inhibition at 30 µM: 83.9%
[7]
  IC50: 10.4 µM

## CCN1C[C@]2(OC(=O)c3ccccc3NC(=O)S(=O)(=O)c3cccnc3)CC[C@H](OC)[C@]34C1[C@@H](C[C@H]23)[C@@]1(O)C[C@H](OC)[C@H]2C[C@@H]4[C@]1(O)[C@H]2OC
[5]
  viability at 24 h, 30 µM: 99.3%
[6]
  inhibition at 30 µM: 63.2%
[7]
  IC50: 22.2 µM

## CCN1C[C@]2(COC(=O)c3ccccc3NC(=O)c3ccc(Cl)s3)CC[C@H](OC)[C@]34C1[C@@H](C[C@H]23)[C@@]1(O)C[C@H](OC)[C@H]2C[C@@H]4[C@]1(O)[C@H]2O
[1]
  viability at 24 h, 20 µM: 104%
[2]
  inhibition at 20 µM: 45.3%

## CCN1C[C@]2(OC(=O)c3ccccc3NC(=O)S(=O)(=O)c3ccc(Cl)s3)CC[C@H](OC)[C@]34C1[C@@H](C[C@H]23)[C@@]1(O)C[C@H](OC)[C@H]2C[C@@H]4[C@]1(O)[C@H]2OC
[5]
  viability at 24 h, 30 µM: 100%
[6]
  inhibition at 30 µM: 69%
[7]
  IC50: 17.9 µM

## CCN1C[C@]2(OC(=O)c3ccccc3NC(=O)S(=O)(=O)c3ccc(Br)s3)CC[C@H](OC)[C@]34C1[C@@H](C[C@H]23)[C@@]1(O)C[C@H](OC)[C@H]2C[C@@H]4[C@]1(O)[C@H]2OC
[5]
  viability at 24 h, 30 µM: 103%
[6]
  inhibition at 30 µM: 81.9%
[7]
  IC50: 11.4 µM
